pIC50: −log10 of the molar value.
Experiments:
Hela S3 cells = conditions: from JP 11180997; cited from earlier work
[1] = system: human colon tumour (HT-29 cell line) xenografts; assay: Human colon tumour xenograft, net tumour growth; type: in vivo, female athymic mice; conditions: for Net Tumour Growth ± S.E.M.: HT-29 xenograft, single iv dose 0.5 mg/kg
Text: (§1) At different times, three human tumour cell lines MX-1 (breast), HT-29 (colon), and LX-1 (non-small cell lung), respectively, were implanted subcutaneously into separate groups of recipient female athymic mice as a small seedling of approximately 2-3 mm^3. Each tumour type was then allowed to grow inside the animal to reach a group mean size of 100±15 mm^3, at which time tumour-bearing mice were randomized into groups (Staging Day). The Staging Day also coincided with Day 0 for drug dosing.
(§2) The test article was administered as a single intravenous (iv) bolus injection (i.e., QD×1) on the Staging Day (Day 0).
(§3) Tumour burden was determined for all animals throughout the study using a caliper, and the frequency was at least twice per week.
(§4) Protocols and criteria for drug activity were derived from those established by the National Cancer Institute for tumour systems similar to those used in these studies (NIH Publication No. 84-2635, In vivo cancer models 1976-1982). Statistical analysis of tumour volumes for each group of drug treated animals was performed according to the Mann Whitney nonparametric test based on comparisons to the vehicle control cohort within the same experiment.
(§5) Tumour lengths (L) and widths (W) were measured in millimeters (mm) using calipers, recorded, and tumour volume was calculated by the formula: Volume (mm^3)=L×W^2×0.5. Individual values were determined for each tumour-bearing athymic- mouse and specified day of measurement (day D). On the tumour Staging Day (Day 0), the tumour volume of a treated animal (T01) was subtracted from the corresponding tumour volume on each observation day (TD1). This provided the change (Δ) in tumour volume for the said treated athymic mouse (ΔT1=TD1−T01). The change in tumour volumes for each member of the control cohort (ΔC) was calculated in a similar fashion as above.
(§6) At randomization (Day 0) the average volume of the tumour mass was 100±15 mm^3 and the “net tumour growth” is really a difference between the size of the tumour on Day X and that on Day 0. The parameter S.E.M. is commonly used in statistics and stands for standard error of the mean in a distribution of N (size) experimental values.

[2] = system: human breast tumour (MX-1 cell line) xenografts; assay: Human breast tumour xenograft, net tumour growth; type: in vivo, female athymic mice; parameters: key to Net Tumour Growth ± S.E.M.: †: High mortality prevented meaningful statistical analysis; conditions: for Net Tumour Growth ± S.E.M.: MX-1 xenograft
Text: as §1, §2, §3, §4, §5, §6

Y-79 = assay: MTS tetrazolium cytotoxicity assay; type: cell-based; conditions: Homo sapiens, Y79, 72 h, read-out: Cytotoxic activity (IC50)
Text: (§7) The finality of these assays is to interrupt the growth of an “in vitro” tumour cell culture by means a continued exhibition of the cells to the sample to be testing. The following human cell lines were used:
(§8) Tetrazolium Assay MTS is based on metabolic reduction of MTS to solubilized formazan crystals by the metabolically active mitochondria of living cells. For this reason, the methodology includes counting of the cell lines based on viability staining to ensure that cell concentrations are corrected to allow for 100% living cells into each well in lieu of Coulter counting or estimated dilutions based on standard growth curves.
(§9) Medium containing drug was removed at the end of the treatment and culture plates rinsed one time with PBS. Afterward, cells were incubated in 200 μl of drug-free medium until 72 hours. After appropriate incubation time 25 μl of MTS+PMS solution was added to each microtiter well and incubated for 4 hours at 37° C. Plates were then removed from the incubator and placed on plate shaker for 5 minutes (covered for protection from light). Optical densities were read at 490 nm on spectrophotometer plate reader. Data was analyzed using Softmax.
(§10) Data is presented as IC50 potencies calculated from 3rd order polynomial regression curves using Microsoft Excel and then manually interpolated.

Mel-28 = assay: MTS tetrazolium cytotoxicity assay; type: cell-based; conditions: Homo sapiens, SK-MEL-28, 72 h, read-out: Cytotoxic activity (IC50)
Text: as §7, §8, §9, §10

DU-145 = assay: MTS tetrazolium cytotoxicity assay; type: cell-based; conditions: Homo sapiens, DU-145, 72 h, read-out: Cytotoxic activity (IC50)
Text: as §7, §8, §9, §10

FADU = assay: MTS tetrazolium cytotoxicity assay; type: cell-based; conditions: Homo sapiens, 72 h, read-out: Cytotoxic activity (IC50)
Text: as §7, §8, §9, §10

5637 = assay: MTS tetrazolium cytotoxicity assay; type: cell-based; conditions: Homo sapiens, 72 h, read-out: Cytotoxic activity (IC50)
Text: as §7, §8, §9, §10

Hs746t = assay: MTS tetrazolium cytotoxicity assay; type: cell-based; conditions: Homo sapiens, 72 h, read-out: Cytotoxic activity (IC50)
Text: as §7, §8, §9, §10

PANC-1 = assay: MTS tetrazolium cytotoxicity assay; type: cell-based; conditions: Homo sapiens, PANC-1, 72 h, read-out: Cytotoxic activity (IC50)
Text: as §7, §8, §9, §10

MX-1 = assay: MTS tetrazolium cytotoxicity assay; type: cell-based; conditions: Homo sapiens, MX1, 72 h, read-out: Cytotoxic activity (IC50)
Text: as §7, §8, §9, §10

OSA-FH = assay: MTS tetrazolium cytotoxicity assay; type: cell-based; conditions: Homo sapiens, 72 h, read-out: Cytotoxic activity (IC50)
Text: as §7, §8, §9, §10

LNCAP = assay: MTS tetrazolium cytotoxicity assay; type: cell-based; conditions: Homo sapiens, 72 h, read-out: Cytotoxic activity (IC50)
Text: as §7, §8, §9, §10

SK-HEP-1 = assay: MTS tetrazolium cytotoxicity assay; type: cell-based; conditions: Homo sapiens, SK-HEP1, 72 h, read-out: Cytotoxic activity (IC50)
Text: as §7, §8, §9, §10

A549 = assay: MTS tetrazolium cytotoxicity assay; type: cell-based; conditions: Homo sapiens, A549, 72 h, read-out: Cytotoxic activity (IC50)
Text: as §7, §8, §9, §10

TT = assay: MTS tetrazolium cytotoxicity assay; type: cell-based; conditions: Homo sapiens, 72 h, read-out: Cytotoxic activity (IC50)
Text: as §7, §8, §9, §10

MC116 = assay: MTS tetrazolium cytotoxicity assay; type: cell-based; conditions: Homo sapiens, MC116, 72 h, read-out: Cytotoxic activity (IC50)
Text: as §7, §8, §9, §10

H9 = assay: MTS tetrazolium cytotoxicity assay; type: cell-based; conditions: Homo sapiens, H9, 72 h, read-out: Cytotoxic activity (IC50)
Text: as §7, §8, §9, §10

SW 694 = assay: MTS tetrazolium cytotoxicity assay; type: cell-based; conditions: Homo sapiens, 72 h, read-out: Cytotoxic activity (IC50)
Text: as §7, §8, §9, §10

HT-29 = assay: MTS tetrazolium cytotoxicity assay; type: cell-based; conditions: Homo sapiens, HT-29, 72 h, read-out: Cytotoxic activity (IC50)
Text: as §7, §8, §9, §10

PC-3 = assay: MTS tetrazolium cytotoxicity assay; type: cell-based; conditions: Homo sapiens, PC-3, 72 h, read-out: Cytotoxic activity (IC50)
Text: as §7, §8, §9, §10

BT-474 = assay: MTS tetrazolium cytotoxicity assay; type: cell-based; conditions: Homo sapiens, BT-474, 72 h, read-out: Cytotoxic activity (IC50)
Text: as §7, §8, §9, §10

SW-579 = assay: MTS tetrazolium cytotoxicity assay; type: cell-based; conditions: Homo sapiens, SW579, 72 h, read-out: Cytotoxic activity (IC50)
Text: as §7, §8, §9, §10

CHSA = assay: MTS tetrazolium cytotoxicity assay; type: cell-based; conditions: Homo sapiens, 72 h, read-out: Cytotoxic activity (IC50)
Text: as §7, §8, §9, §10

NCI-H187 = assay: MTS tetrazolium cytotoxicity assay; type: cell-based; conditions: Homo sapiens, NCI-H187, 72 h, read-out: Cytotoxic activity (IC50)
Text: as §7, §8, §9, §10

K562 = assay: MTS tetrazolium cytotoxicity assay; type: cell-based; conditions: Homo sapiens, K562, 72 h, read-out: Cytotoxic activity (IC50)
Text: as §7, §8, §9, §10

SK-N-MC = assay: MTS tetrazolium cytotoxicity assay; type: cell-based; conditions: Homo sapiens, 72 h, read-out: Cytotoxic activity (IC50)
Text: as §7, §8, §9, §10

SK-OV-3 = assay: MTS tetrazolium cytotoxicity assay; type: cell-based; conditions: Homo sapiens, SK-OV-3, 72 h, read-out: Cytotoxic activity (IC50)
Text: as §7, §8, §9, §10

HL-60 = assay: MTS tetrazolium cytotoxicity assay; type: cell-based; conditions: Homo sapiens, HL-60, 72 h, read-out: Cytotoxic activity (IC50)
Text: as §7, §8, §9, §10

786-O = assay: MTS tetrazolium cytotoxicity assay; type: cell-based; conditions: Homo sapiens, 786-0, 72 h, read-out: Cytotoxic activity (IC50)
Text: as §7, §8, §9, §10

[3] = Maximum tolerated dose in mice; conditions: CD-1, mouse, in vivo
[4] = system: human non-small cell lung tumour (LX-1 cell line) xenografts; assay: Human non-small cell lung tumour xenograft, net tumour growth; type: in vivo, female athymic mice; conditions: for Net Tumour Growth ± S.E.M.: LX-1 xenograft
Text: as §1, §2, §3, §4, §5, §6

[5] = single iv dose 1.0 mg/kg, DAY 3
[6] = single iv dose 1.0 mg/kg, DAY 6
[7] = single iv dose 1.0 mg/kg, DAY 10
[8] = single iv dose 1.5 mg/kg, DAY 3
[9] = single iv dose 1.5 mg/kg, DAY 6
[10] = single iv dose 1.5 mg/kg, DAY 10

Compound: CCC(C)C1NC(=O)c2nc(oc2-c2ccccc2)-c2csc(n2)-c2coc(n2)-c2coc(n2)-c2coc(n2)CNC(=O)C(C(C)C)NC1=O (centres unmarked)
- pIC50 (Hela S3 cells): 7.85

Compound: C=C1NC(=O)C(C(C)C)NC(=O)C(C(C)CC)NC(=O)c2nc(oc2-c2ccccc2)-c2coc(n2)-c2csc(n2)-c2coc(n2)-c2coc1n2 (centres unmarked) [IB-01211]
- Net Tumour Growth ± S.E.M. ([1]; DAY 1): 26 ± 11 mm^3
- Net Tumour Growth ± S.E.M. ([1]; DAY 4): 53 ± 28 mm^3
- Net Tumour Growth ± S.E.M. ([1]; DAY 8): 162 ± 34 mm^3
- antitumour effect in vivo ([1]; colon tumour, dose of 0.14 MTD): not against colon tumour
- Net Tumour Growth ± S.E.M. [2, 5]: 5 ± 3 mm^3
- Net Tumour Growth ± S.E.M. [2, 6]: 113 ± 62 mm^3
- Net Tumour Growth ± S.E.M. [2, 7]: 450 ± 137 mm^3
- Net Tumour Growth ± S.E.M. [2, 8]: †
- Net Tumour Growth ± S.E.M. [2, 9]: †
- Net Tumour Growth ± S.E.M. [2, 10]: †
- antitumour effect in vivo ([2]; breast tumour, dose of 0.29 MTD): trend to significance
- pIC50 (Y-79): 7.03
- pIC50 (Mel-28): 6.29
- pIC50 (DU-145): 6.32
- pIC50 (FADU): 6.18
- pIC50 5637: 6.47
- pIC50 (Hs746t): 6.16
- pIC50 (PANC-1): 6.37
- pIC50 (MX-1): 6.06
- pIC50 (OSA-FH): 6.14
- pIC50 (LNCAP): 6.19
- pIC50 (SK-HEP-1): 6.18
- pIC50 (A549): 6.04
- pIC50 (TT): 5.36
- pIC50 (MC116): 5.47
- pIC50 (H9): 6.74
- pIC50 (SW 694): 6.14
- pIC50 (HT-29): 6.09
- pIC50 (PC-3): 6.21
- pIC50 (BT-474): 6.27
- pIC50 (SW-579): 6.34
- pIC50 (CHSA): 6.45
- pIC50 (NCI-H187): 7.53
- pIC50 (K562): 6.20
- pIC50 (SK-N-MC): 6.27
- pIC50 (SK-OV-3): 6.02
- pIC50 (HL-60): 6.85
- pIC50 (786-O): 6.16
- MTD [3]: 3.5 mg/kg
- Net Tumour Growth ± S.E.M. [4, 5]: 68 ± 29 mm^3
- Net Tumour Growth ± S.E.M. [4, 6]: 234 ± 11 mm^3
- Net Tumour Growth ± S.E.M. [4, 7]: 561 ± 60 mm^3
- Net Tumour Growth ± S.E.M. [4, 8]: 11 ± 19 mm^3
- Net Tumour Growth ± S.E.M. [4, 9]: 121 ± 51 mm^3
- Net Tumour Growth ± S.E.M. [4, 10]: 309 ± 71 mm^3
- antitumour effect in vivo ([4]; human non-small cell lung tumour, dose of 0.43 MTD): significant antitumour effect

From US7446094B2, “Cytotoxic depsipeptides” (Instituto Biomar S.A., priority 2003, dated 2008)
